# Residues, ends and D or L forms follow the SMILES beside them. *: point of attachment. Boc = CC(C)(C)OC(=O)*; OBn = c1ccc(CO*)cc1
row,Structure (SMILES),melting point [°C]
1,CC1(OCc2ccccc2F)COC(c2cccc(F)c2)OC1 (stereo not given),83 to 84
2,N#CC(=C(Nc1ccc2c(c1)OCO2)NC1CCC1)S(=O)(=O)c1ccc(Cl)cc1,190
3,CC(CN)C1=CC(C)(C(=O)O)CC=C1 (stereo not given),236 to 238
4,N#Cc1cnc2cc(C=O)sc2c1Cl,188 to 189
5,CC(C)(C)OC(=O)NCC(=O)NCC(=O)OCc1ccccc1 (Boc-Gly-Gly-OBn),83
6,CC1=CCCC2C1(C)CCC(C)C2(C)Cc1cc(O)ccc1O (stereo not given),146 to 148
7,COc1ccc(S(=O)(=O)Nc2nc(-c3cccc([N+](=O)[O-])c3)c(CN3CCOCC3)s2)cc1OC,143
8,C=Cc1ccc(C(=O)OC)[nH]1,91 to 93
9,CNC1=NC2(O)c3ccc(OCC(F)(F)C(F)(F)C(F)(F)F)cc3CC2S1 (stereo not given),178 to 180
10,O=C(c1cccs1)c1cnn2c(-c3cccc(NC/C=C/c4ccc([N+](=O)[O-])cc4)c3)ccnc12,163 to 166
11,COc1ccc2c(c1)C(C(=O)O)=Cc1ccccc1O2,150
12,OCC(CO)SCc1ccc(Cl)cc1,70 to 75
13,CC1(CN2CCC(S(=O)c3ccc(OC(F)(F)F)cc3)CC2)Cn2cc([N+](=O)[O-])nc2O1 (stereo not given),107 to 109
14,CC(=O)Nc1ccc(OCCN2CCc3ccc([N+](=O)[O-])cc3CC2)cc1C,132 to 134
15,Cc1cc2c(s1)C(C(=O)O)CC2 (stereo not given),105 to 107
16,Cc1ccc(Sc2ccnc3sc(C(N)=O)cc23)cc1,280 to 282
17,CCOC(=O)C=C(C)C=CC=C(C)C=Cc1c(C)sc(C)c1C,88 to 89
18,Cn1nc2c(-c3ccc(Cl)cc3Cl)cccc2c1C=CC#N,258 to 259
19,CCCCCCCCCCCCCCCCCC(=O)N1CCCCc2nc(-c3ccccc3)sc21,38 to 40
20,CC(C)(C)c1nc(C=O)cc(N)c1F,129 to 130
21,CC(=O)N1CCC(CCCC(=O)c2ccc3c(c2)CCN(C(=O)C(F)(F)F)CC3)CC1,101 to 102
22,CCC(CC)Nc1nc(C)nc(Oc2c(C)cc(C)nc2C)c1[N+](=O)[O-],134 to 135
23,CC1(C)CCc2c(N)c(Cl)cc(C(=O)O)c2O1,165
24,NC1=NC(c2ccc(OC(F)F)cc2)(c2cccc(-c3cccnc3F)c2)C2=NCCCN12 (stereo not given),104 to 114
25,COc1nc(NCCc2ccc(OC(F)F)cc2)nc(-c2ccc(Cl)c(C(C)(C)O)c2)n1,127

row,Structure (SMILES),melting point [°C]
1,COCCOc1ccc(CN)cc1O,89 to 90
2,C=C(C(=O)OC1CC2CCC(C1)N2C(C)=O)c1ccccc1 (stereo not given),104 to 107
3,CC(C)(Oc1ccc(CCC(=O)c2cc(-c3ccc(C(F)(F)F)cc3)cs2)c(Cl)c1Cl)C(=O)O,99 to 101
4,CC(=O)SCCN(CCc1ccccc1)C(=O)N[C@@H](Cc1ccc([N+](=O)[O-])cc1)C(=O)NCCC(=O)O,114 to 118
5,O=Cc1ncn2c1[C@@H]1CCCN1C(=O)c1c(Cl)cccc1-2,224 to 225
6,CCCn1c(=O)c2[nH]c(C3CC4CCC3C4)nc2n(CCC)c1=O (stereo not given),136 to 138
7,CN(c1ccc(OC(F)(F)C(F)F)cc1)c1c([N+](=O)[O-])cc([N+](=O)[O-])cc1C(F)(F)F,91 to 92
8,N#CC(=O)c1ccccc1Br,64
9,Cc1cccc(C)c1NC(=O)CN1CCN(C=O)CC1,139 to 140
10,C=CCNc1nc(C)c(C(=O)c2ccc(Cl)c([N+](=O)[O-])c2)s1,154 to 156
11,CC(C)(O)c1nnc(-c2ccc3ncn(-c4ccc(OC(F)(F)F)cc4)c3c2)o1,159 to 160
12,O=C(Nc1ccc(NC(=O)OCCCl)c([N+](=O)[O-])n1)OCCCl,118 to 119
13,N#CC1CN1C(=O)c1ccc(Cl)nn1 (stereo not given),109 to 115
14,CCc1nnc2c(Cl)nc3ccccc3n12,158 to 160
15,COc1ccc(-n2cc(CCCO)c(C(C)C)n2)nn1,122 to 123
16,CC1N=CC=C(CS)C1(O)CC(=O)O (stereo not given),185 to 187
17,O=c1ccc(OS(=O)(=O)C(F)(F)F)n[nH]1,130 to 132
18,COc1ccc(CCNc2nc(N)c3nc(-c4ccco4)oc3n2)cc1OC,155 to 158
19,CCOC(=O)C1=Cc2cc(Br)ccc2OCC1,86 to 87
20,CSC(=NC#N)NCCSCc1ccc(Nc2ccccc2)nc1,180 to 182
21,O=[N+]([O-])c1ccc(Oc2ccc(F)cc2F)cc1,58 to 62
22,OCC1COC(Cn2cncn2)(c2ccc(Oc3ccccc3)cc2)O1 (stereo not given),111 to 112
23,COc1ccc(-c2[nH]c(-c3ccc(F)cc3)cc2C(=O)N2CCOCC2)cc1OC,190
24,CCOC(=O)c1csc(C2OC(COC(=O)c3ccccc3)C(O)C2O)n1 (stereo not given),82 to 85
25,Cc1cc(C)c(N2CCCc3c2nn(C)c3Br)c(Cl)c1,106 to 107

row,Structure (SMILES),melting point [°C]
1,CNC(=S)NC1=NN(c2ccc(Cl)cc2)CC1,237
2,O=S(=O)(c1ccc(F)cc1)C(F)(F)C(F)(F)C(F)(F)C(F)(F)S(=O)(=O)c1ccc(F)cc1,126 to 127
3,CCN1C(=O)CON(C(C)=O)C1c1ccccc1 (stereo not given),130 to 132
4,c1ccc([C@H]2OC2(c2ccccc2)c2ccccc2)cc1,91 to 92
5,CC12CCC3c4ccc(C(=O)O)cc4CCC3C1CCC2C(=O)c1ccc2c(c1)OCO2 (stereo not given),235 to 237
6,Cc1ccccc1COCC1OC(n2cc(C(F)(F)F)c(=O)[nH]c2=O)CC1O (stereo not given),178 to 179
7,CC(C(=O)O)c1ccc(N2CCC=N2)c(Cl)c1 (stereo not given),94 to 102
8,Fc1ccc(Cl)c2ncccc12,74 to 76
9,Cn1c2c(c3cc(OCc4ccccc4)ccc31)CC(CCN)C2 (stereo not given),72 to 75
10,COc1cc(C=CC(=O)Nc2c(-c3ccccc3C)c3cc(Cl)c(C)cc3oc2=O)cc(OC)c1OC(C)=O,248 to 250
11,O=C1N=CC(OCc2ccccc2)(C(F)(F)F)c2cc(Cl)ccc2N1 (stereo not given),177 to 178
12,COc1ccc(Cc2nc3cc(Cl)cc(CC=NO)c3o2)cc1OC1CCCC1,149 to 151
13,COC(=O)c1c(-c2ccccc2)[nH]c(-c2ccncc2)c1C,202 to 204
14,O=C(O)c1cccc(Cn2ccn(C3CCc4ccccc4C3)c2=S)c1 (stereo not given),252 to 254
15,CC(C)c1nc(CNC(=O)C(F)(F)F)n(C)c1Sc1cc(Cl)cc(Cl)c1,157 to 158
16,CCOC(=O)c1ccc(NC(=O)CNc2ccccc2F)cc1,169 to 170
17,CCOC(=O)CCCN(C(=O)CCCN(C(=O)c1ccc(Cl)cc1)c1c(C)cccc1C)c1c(C)cccc1C,95 to 97
18,COC(=O)c1cc2c(nc1Cl)CCCCC2,148 to 149
19,CC(C)CCC(=O)C(C(=O)O)C1c2ccccc2C(=O)N1c1ccc2ccc(Cl)nc2n1 (stereo not given),176
20,O=C(c1ccco1)N1CCN[C@@H]2CCCC[C@@H]21,47 to 50
21,CC(=O)Oc1cc(OC(C)=O)cc(C(=O)CBr)c1,61 to 62
22,N#Cc1cccc(NC(=O)C(=O)N2CCC(Cc3ccc(F)cc3)CC2)c1,135 to 138
23,O=c1c(C(O)c2ccc(Cl)cc2)c(Cl)nc2n1CCS2 (stereo not given),175 to 177
24,O=C(O)Cc1ccc(OCCNC(=O)C2Cc3ccccc3N2S(=O)(=O)c2ccc(-c3cccc(C(F)(F)F)c3)cc2)cc1 (stereo not given),92
25,CN(CCn1ncc(-c2ccccc2)cc1=O)CC(O)c1ccc(NS(C)(=O)=O)cc1 (stereo not given),108

row,Structure (SMILES),melting point [°C]
1,CC(C)(Cc1c[nH]c2ccccc12)NCC(O)COc1ccccc1C#N (stereo not given),120 to 123
2,Cc1cc(-n2ccnc2)c2cccc(OCc3c(Cl)ccc(S(=O)(=O)N4CCC[C@H]4C(=O)NCC4CCN(CCCO)CC4)c3Cl)c2n1,90
3,COc1cc2[nH]nc(CN3CCN(c4ccccc4OC)CC3)c2cc1OC,192
4,Cn1nc2c([N+](=O)[O-])cc3nc(O)c(O)nc3c2n1,> 300
5,O=C1CCC(N2Cc3c(OCc4ccc(CN5CCc6ncccc6C5)cc4)cccc3C2=O)C(=O)N1 (stereo not given),163 to 165
6,CCOC(=O)C(=O)Nc1cc(C(F)(F)F)c(S(=O)(=O)NC(=O)C(=O)OCC)cc1[N+](=O)[O-],175 to 180
7,CC(C)N1CCN(c2ccc(C(=O)NCCCCCCCCCCCCO[N+](=O)[O-])cn2)CC1,56 to 58
8,Cc1cnc2n1-c1ccc(Cl)cc1C(c1ccccc1Cl)=NC2,148 to 149
9,COC(=O)c1cc(C(=O)c2ncc3ccccn23)ccc1NC(=O)c1ccccc1,218
10,CCCCCCC(C)(C)c1cc(O)c2c(c1)OC(C)(C)[C@@H]1CC=C(NC(C)=O)C[C@@H]21 (relative stereo),186 to 188
11,CC(C)N(Cc1ccccc1)c1ncnc2nc[nH]c12,200 to 202
12,COCCCn1nnnc1-c1cc(-c2ccc(C(F)(F)F)cc2)c(O)cc1O,98 to 104
13,CCOC(=O)CC(=O)Nc1c(F)cccc1[N+](=O)[O-],99 to 102
14,CCOC(=O)CCCN1C(=O)c2ccc(N/C(=C3\C(=O)Nc4ccccc43)c3ccccc3)cc2C1=O,78 to 80
15,O=C(OCc1ccccc1)c1ccc2cc(-c3ccc(CCCO)c(C45CC6CC(CC(C6)C4)C5)c3)ccc2c1,176
16,COc1ccc2[nH]c(SCc3ncc(C)c(OC)c3C)nc2c1,120 to 121
17,O=C(O)Cc1c(C(=O)c2cccc(Cl)c2)[nH]c2ccc(F)cc12,208 to 212
18,O=C(NCc1cccnc1)Nc1cc(N2CC(c3ccccc3)CC2=O)ccn1 (stereo not given),179 to 180
19,CNCCCS(=O)(=O)CCCC(F)(F)C(F)(F)F,55 to 57
20,Cc1ccc2c(c1)c(=O)c(S(C)=O)nn2C (stereo not given),173 to 175
21,CCNc1ccc(NCCO)cc1[N+](=O)[O-],106
22,COc1cc(OC(C)C)ccc1-c1c(OC(C)C)cccc1C(=O)O,117 to 119
23,C[C@@H](c1ccccc1)N1C[C@@H](C(N)=O)CC1=O,149 to 150
24,CCOC(=O)N1CCC(c2ccc3nc(-c4ccc(S(C)(=O)=O)cc4F)oc3c2)CC1,154 to 158
25,C[C@H]1[C@@H](CO)CCN1c1ccc(C#N)c2sccc12,109 to 111

# Reference: a melting point compilation (Tetko et al.; mined from patent text by program, amines drawn as free bases though some values may be those of a salt)
